# Values of other authors, collected in US20050169894A1, “Compositions and methods for ex vivo preservation of blood vessels for vascular grafts using inhibitors of Type III and/or Type IV phosphodiesterases” (priority 2003, published 2005).
# How the values were obtained:
# endothelial cells = settings: stated as known; about 4 mM
# Type V phosphodiesterase = Type V phosphodiesterase (Homo sapiens, UniProt O76074); settings: at high concentrations; Lugnier and Komas, 1993
# [1] = test system: Type IV phosphodiesterase; settings: at high concentrations; Lugnier and Komas, 1993
inhibition of Type V phosphodiesterase activity (Type V phosphodiesterase),inhibition of Type IV phosphodiesterase activity [1],Compound,concentration toxic to endothelial cells (endothelial cells)
–,–,"CCCC(=O)Nc1ncnc2c1ncn2[C@@H]1O[C@@H]2COP(=O)(O)O[C@H]2[C@H]1OC(=O)CCC [db cAMP, dibutyryl adenosine 3′,5′-cyclic monophosphate]",higher than 4 mM
inhibits,inhibits,"Cc1[nH]c(=O)c(C#N)cc1-c1ccncc1 [milrinone, Milrinone]",–
